Measurements reported in patent publication US11590110B2, “Compositions and methods for reactivating latent immunodeficiency virus using a GSK-3 inhibitor” (priority 2017, dated 2023).

Experiments:
[1] = system: latent HIV in CD4+ T cells of HIV-infected patients on suppressive anti-retroviral therapy; test: Example 7: reversal of HIV latency in patient CD4+ T cells, extracellular viral RNA by digital droplet PCR
[2] = system: AKT/mTOR pathway in CD4+ T cells; test: Example 5: phosphoproteomics (mass spectrometry) and GO enrichment analysis; assay type: cell-based, human; conditions: 1 μM; 15 minutes
Description: Cells were lysed in a buffer containing 8M urea, 100 mM Tris pH 8.0, 150 mM NaCl, and protease inhibitors (Roche Complete tablet). Lysates were reduced with 4 mM TCEP for 30 minutes at room temperature and alkylated with 10 mM iodoacetamide for 30 minutes at room temperature in the dark. Samples were diluted 1:4 in 100 mM Tris pH 8.0 to reduce urea concentration to 2M and digested with trypsin (1:100 enzyme:substrate ratio) overnight at 37 degrees Celsius. Peptides were desalted with SepPak C 18 solid phase extraction (Waters) according the manufacturer's specifications and lyophilized to dryness. Phosphopeptides were purified using an immobilized metal affinity chromatography approach.
Samples were analyzed on a Thermo Scientific LTQ Orbitrap Elite MS system equipped with an Easy nLC-1000 HPLC and autosampler system that is capable of maintaining back pressures of up to 10,000 psi for high resolution chromatographic separations. The HPLC interfaces with the MS system via a nanoelectrospray source.
Samples were injected onto a C18 reverse phase capillary column (75 um inner diameter×25 cm length, packed with 1.9 um C18 particles). Peptides were then separated by an organic gradient from 5% to 30% ACN in 0.1% formic acid over 180 minutes at a flow rate of 300 nl/min. The MS continuously collected spectra in a data-dependent fashion over the entire gradient.
Raw mass spectrometry data were analyzed using the MaxQuant software package (version 1.3.0.5). Data were matched to the SwissProt human reference sequence database. MaxQuant was configured to generate and search against a reverse sequence database for false discovery rate calculations. […] For MS/MS matching, a mass tolerance of 0.5 Da was allowed and the top 6 peaks per 100 Da were analyzed. […]
The MaxQuant-analyzed data were subsequently analyzed using an in-house computational pipeline for statistical analysis of relative quantification with fixed and/or mixed effect models, implemented in the MSstats Bioconductor package (version 3.3.10). […]

[3] = system: latent HIV-1 in blood CD4+ T cells from infected individuals on suppressive ART; assay type: cell-based
[4] = system: patient-derived CD4+ T cells; test: Example 3: expression of activation markers CD69 and CD25 in patient-derived CD4+ T cells; assay type: cell-based, human; conditions: 48 hours; anti-CD3/CD28 beads = 100%
Description: Following treatment with Tideglusib, the CD4^+ T cells were spun down and stained with antibodies for the activation markers CD69 and CD25. Briefly, cells were harvested 48 hours after Tideglusib treatment, incubated with the antibodies for 15 minutes at room temperature, than washed and fixed with 1% PFA for 30 minutes; then washed again and analyzed via flow cytometer.

NK cells = test: Example 5: NK cell viability and cytotoxic effector functions; assay type: cell-based, human
Description: Density centrifugation using a Ficoll-Hypaqua gradient was performed to purify PBMCs from continuous-flow centrifugation leukapheresis product. Subsequently, cells were plated in 96-well U-bottom plated in complete RPMI, which was supplemented with 10 ng/ml recombinant IL-15 (R&D systems), treated with LRAs or vehicle controls (DMSO) and incubated at 37° C., 5% CO2 for 48 h. To assay NK cell functionality, cells were analyzed by flow cytometry. Briefly, 1×10^6 cells/200 ul were stained with FITC anti-CD107 antibodies (1:50, BD Biosciences), mixed with 1×10^5 K562 cells and incubated at 37° C., 5% CO2 for 1 h. Then, in order to enhance intracellular cytokine staining, protein transport was blocked with Brefeldin A (Sigma-Aldrich) and golgi stop (BD Biosciences) according to the manufacturer instructions and the cells were incubated at 37° C., 5% CO2 for another 5 h. Afterwards, cells were spun down (5 min, 330×g, RT), the supernatant was removed and the cells were stained using Zombie violet (1:50, Biolegend) according to the manufacturer protocol. Subsequently, cells were stained for surface proteins staining with the following antibodies: APC/Cy7 anti CD3 (1:100, Biolegend), APC anti CD14 (1:100, Biolegend), APC anti CD19 (1:100, Biolegend), PE/Cy7 anti CD56 (1:100, BD Biosciences), Alexa Fluor 700 anti CD16 (1:100, Biolegend), PE anti CD7 (1:50, Thermo Fisher Scientific) for 15 min at room temperature. Next, cells were permeabilized and fixed using the Foxp3/Transcription Factor Fixation/Permeabilization Concentrate and Diluent kit (eBioscience) and stained intracellularly with PerCP/Cy5 anti IFN-γ (1:50, BD Bioscience) in FOXP3 perm/wash buffer for 1 h at 4° C. Finally, cells were washed and fixed in 1% paraformaldehyde/PBS, and subjected to flow cytometry analysis on a LSRII (BD Biosciences). Data were obtained using FlowJo software (Treestar). Samples were gated for singlets, live, CD3 negative, CD14/CD19 negative and CD7 positive cells as previously described (York, Milush). CD16high/CD56dim, CD16dim/CD56high cells were considered for analysis of IFN-γ and CD107a positivity. All gates were defined, based on fluorescence minus one (FMO) samples.

[5] = pre-treatment 1 μM 48 hours, then K562 cells

## O=c1sn(-c2cccc3ccccc23)c(=O)n1Cc1ccccc1 [Tideglusib, 4-benzyl-2-(naphthalen-1-yl)-1,2,4-thiadiazolidine-3,5-dione]
[1]; at equivalent doses
  latency reversing activity, in words: comparable activity
[1]; highest concentration
  induction of latent virus production (virus-associated RNA over DMSO-treated control): ~40 fold
[1]; highest dose
  subjects that did not respond: 1 of 8
[2]
  GO enrichment analysis of treated vs untreated phosphoproteomics results: activation of TCR signaling (data not shown), together with overall spliceosome complex activity, transcription activation, mRNA processing and EGFR signaling
  phosphoproteomics: GSK-3β and TSC2: confirmed inhibition of GSK-3β and TSC2
  phosphoproteomics: Rictor: revealed phosphorylation of Rictor on T1295
[3]; 1 μM tideglusib vs 10 nM bryostatin-1
  release of virus-associated HIV-1 mRNA relative to bryostatin-1, by median values: twofold more
[3]; 1 μM, 48 hours, relative to untreated control
  virus-associated HIV-1 mRNA, median value: 10.3 fold
[4]
  activation markers CD69 and CD25 on the surface of CD4+ T cells: not up-regulated
NK cells; 48 hours
  viability of NK cells: did not reduce viability
NK cells; [5]
  IFN-γ production in NK cells: increase in IFN-γ production
  increase of surface expression of CD107a in NK cells: less marked
